In ChEMBL document CHEMBL1129088, “Synthesis and antitumor activity of novel duocarmycin derivatives” (Bioorg Med Chem Lett, 1996):
pIC50: −log10 of the molar value.

Experiments:
Mus musculus [1] = assay: Compound was evaluated in vivo for the antitumor activity against murine sarcoma 180 cell lines at the specified dose 8.0 mg/kg; type: functional
HeLa = assay: In vitro cytotoxicity against HeLaS3 cell lines.; type: functional, cell-based; details: Homo sapiens
Mus musculus [2] = assay: Compound was evaluated in vivo for the antitumor activity against murine sarcoma 180 cell lines at the specified dose 16 mg/kg; type: functional
Mus musculus [3] = assay: Compound was evaluated in vivo for the antitumor activity against murine sarcoma 180 cell lines at the specified dose 4.0 mg/kg; type: functional
Mus musculus [4] = assay: Compound was evaluated in vivo for the antitumor activity against murine sarcoma 180 cell lines at the specified dose 0.25 mg/kg; type: functional
Mus musculus [5] = assay: Compound was evaluated in vivo for the antitumor activity against murine sarcoma 180 cell lines at the specified dose 2.0 mg/kg; type: functional
Mus musculus [6] = assay: Compound was evaluated in vivo for the antitumor activity against murine sarcoma 180 cell lines at the specified dose 1.0 mg/kg; type: functional
Mus musculus [7] = assay: Compound was evaluated in vivo for the antitumor activity against murine sarcoma 180 cell lines at the specified dose 0.5 mg/kg; type: functional
Mus musculus [8] = assay: Compound was evaluated in vivo for the antitumor activity against murine sarcoma 180 cell lines at the specified dose 1 mg/kg; type: functional

Compound | T/C (Mus musculus [1]) | pIC50 (HeLa) | T/C (Mus musculus [2]) | T/C (Mus musculus [3]) | T/C (Mus musculus [4]) | T/C (Mus musculus [5]) | T/C (Mus musculus [6]) | T/C (Mus musculus [7]) | T/C (Mus musculus [8])
CNc1ccc(/C=C/C(=O)N2C[C@@H](CBr)c3c2cc(OC(=O)N(C)C)c2c3C(=O)[C@](C)(C(=O)OC)N2)cc1 | 0.1 | 6.14 | 0.055 | 0.18 | – | – | – | – | –
COC(=O)[C@]1(C)Nc2c(O)cc3c(c2C1=O)[C@H](CBr)CN3C(=O)c1cc2cc(OC)c(OC)c(OC)c2[nH]1 | – | 10.55 | – | – | 0.024 | – | – | – | –
COC(=O)[C@]1(C)Nc2c(OC(=O)N(C)C)cc3c(c2C1=O)[C@H](CBr)CN3C(=O)/C=C/c1ccc(OC)cc1 | 0.14 | 6.29 | 0.057 | 0.19 | – | – | – | – | –
COC(=O)Nc1ccc2[nH]c(C(=O)N3C[C@@H](CBr)c4c3cc(OC(=O)N(C)C)c3c4C(=O)[C@](C)(C(=O)OC)N3)cc2c1 | – | 6.23 | – | 0.13 | – | 0.31 | – | – | –
COC(=O)[C@]1(C)Nc2c(OC(=O)N(C)C)cc3c(c2C1=O)[C@H](CBr)CN3C(=O)c1cc2cc(OC)ccc2o1 | – | 6.40 | – | – | – | – | 0.13 | 0.26 | –
COC(=O)[C@@]1(C)C(=O)c2c3c(cc(O)c2N1C(=O)N(C)C)N(C(=O)c1cc2cc(OC)c(OC)c(OC)c2[nH]1)C[C@H]3CBr | – | 7.25 | – | – | 0.31 | – | – | 0.13 | 0.087
COC(=O)[C@]1(C)Nc2c(OC(=O)N(C)C)cc3c(c2C1=O)[C@H](CBr)CN3C(=O)COc1ccc(OC)cc1 | 0.16 | 7.01 | 0.076 | 0.24 | – | – | – | – | –
